Source: the supplement of paper PMC10307832

Assays:
Experiment in all cases: relative viability (nuclei count vs DMSO), 5 days (fraction); higher = more cells survive
Pazopanib + Dasatinib = compound: Cc1ccc(Nc2nccc(N(C)c3ccc4c(C)n(C)nc4c3)n2)cc1S(N)(=O)=O [Pazopanib] + Cc1nc(Nc2ncc(C(=O)Nc3c(C)cccc3Cl)s2)cc(N2CCN(CCO)CC2)n1 [Dasatinib] (partner 0.075 µM)
Summary of the method: (§1)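 A single step with final 0.05% Triton X-100, 1% formaldehyde and 1 ug/ml Hoechst fixed the cells and stained nuclei 5 days after treatment. Lung cancer cell lines in 1536-well plates had been treated by pin tool the day after seeding with one drug alone or a fixed anchor-drug dose plus five library-drug doses (not always all listed) in √10 steps, and nuclei were counted on 4× images. Relative viability is the ratio of nuclei in treated wells to nuclei in vehicle wells, taken as the median of duplicate plates.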

Ponatinib + Decitabine = compound: Cc1ccc(C(=O)Nc2ccc(CN3CCN(C)CC3)c(C(F)(F)F)c2)cc1C#Cc1cnc2cccnn12 [Ponatinib] + Nc1ncn([C@H]2C[C@H](O)[C@@H](CO)O2)c(=O)n1 [Decitabine] (partner 2 µM)
Summary of the method: as §1

Pazopanib + Luminespib = compound: Cc1ccc(Nc2nccc(N(C)c3ccc4c(C)n(C)nc4c3)n2)cc1S(N)(=O)=O [Pazopanib] + CCNC(=O)c1noc(-c2cc(C(C)C)c(O)cc2O)c1-c1ccc(CN2CCOCC2)cc1 [Luminespib] (partner 0.01 µM)
Summary of the method: as §1

Ponatinib + Bortezomib = compound: Cc1ccc(C(=O)Nc2ccc(CN3CCN(C)CC3)c(C(F)(F)F)c2)cc1C#Cc1cnc2cccnn12 [Ponatinib] + CC(C)C[C@H](NC(=O)[C@H](Cc1ccccc1)NC(=O)c1cnccn1)B(O)O [Bortezomib] (partner 0.002 µM)
Summary of the method: as §1

Cell Line	relative viability (Pazopanib + Dasatinib; first compound 0.01 µM)	relative viability (Pazopanib + Dasatinib; first compound 0.03162 µM)	relative viability (Pazopanib + Dasatinib; first compound 0.1 µM)	relative viability (Pazopanib + Dasatinib; first compound 0.3162 µM)	relative viability (Pazopanib + Dasatinib; first compound 1 µM)	relative viability (Ponatinib + Decitabine; first compound 0.002 µM)	relative viability (Ponatinib + Decitabine; first compound 0.006325 µM)	relative viability (Ponatinib + Decitabine; first compound 0.06325 µM)	relative viability (Ponatinib + Decitabine; first compound 0.2 µM)	relative viability (Pazopanib + Luminespib; first compound 0.01 µM)	relative viability (Pazopanib + Luminespib; first compound 0.03162 µM)	relative viability (Pazopanib + Luminespib; first compound 0.1 µM)	relative viability (Pazopanib + Luminespib; first compound 0.3162 µM)	relative viability (Pazopanib + Luminespib; first compound 1 µM)	relative viability (Ponatinib + Bortezomib; first compound 0.002 µM)	relative viability (Ponatinib + Bortezomib; first compound 0.006325 µM)	relative viability (Ponatinib + Bortezomib; first compound 0.06325 µM)	relative viability (Ponatinib + Bortezomib; first compound 0.2 µM)
NCI-H441	0.451	0.612	0.643	0.565	0.658	0.228	0.246	0.271	0.267	0.343	0.485	0.311	0.274	0.317	0.592	0.363	0.402	0.452
NCI-H460	0.274	0.472	0.566	0.603	0.758	0.533	0.471	0.559	0.454	0.0281	0.0326	0.033	0.0276	0.0432	1.01	0.98	1.06	0.974
NCI-H520	0.142	0.183	0.213	0.145	0.25	0.426	0.483	0.45	0.411	0.234	0.235	0.227	0.218	0.214	0.623	0.83	0.874	0.439
NCI-H596		0.617	0.454	0.6	0.575	0.925	0.999	0.984	1		1.05	1.02	0.908	1.19	0.88	0.959	0.905	0.829
NCI-H647	0.135	0.21	0.224	0.243	0.25	0.319	0.369	0.429	0.407	0.244	0.124	0.199	0.217	0.14	0.825	0.964	1.15	0.969
NCI-H650	0.398	0.511	0.449	0.427	0.482	0.296	0.319	0.341	0.299	0.682	0.773	0.669	0.813	0.735	0.536	0.695	0.575	0.703
NCI-H661	0.908	0.894	0.815	0.931	1.15	0.524	0.537	0.562	0.515	0.926	0.927	0.958	1.02	0.953	0.714	0.88	0.962	0.63
NCI-H727	0.402	0.378	0.394	0.444	0.413	0.909	1.01	0.838	0.933	0.346	0.634	0.381	0.266	0.262	0.625	0.856	0.851	0.824
NCI-H838	0.273	0.278	0.297	0.278	0.334	0.417	0.475	0.458	0.487	0.351	0.351	0.282	0.21	0.322	0.903	1.05	0.698	0.817
